From patent US8703793B2, “Tricyclic pyridine derivatives, medicaments containing such compounds, their use and process for their preparation” (Boehringer Ingelheim International GmbH, priority 2008, dated 2014)

These molecules were tested against T1, Recombinant human CETP (Homo sapiens, UniProt P11597) (assay: CETP Scintillation Proximity Assay). Conditions: 3H-cholesteryl ester transfer from human HDL donor to biotin labelled LDL, over night at room temperature; read-out: IC50 values for CETP inhibitory activity.
T1 construct: made in house; host or cells: CHO cells (secreted into conditioned medium)
T1 sequence (P11597 18-493): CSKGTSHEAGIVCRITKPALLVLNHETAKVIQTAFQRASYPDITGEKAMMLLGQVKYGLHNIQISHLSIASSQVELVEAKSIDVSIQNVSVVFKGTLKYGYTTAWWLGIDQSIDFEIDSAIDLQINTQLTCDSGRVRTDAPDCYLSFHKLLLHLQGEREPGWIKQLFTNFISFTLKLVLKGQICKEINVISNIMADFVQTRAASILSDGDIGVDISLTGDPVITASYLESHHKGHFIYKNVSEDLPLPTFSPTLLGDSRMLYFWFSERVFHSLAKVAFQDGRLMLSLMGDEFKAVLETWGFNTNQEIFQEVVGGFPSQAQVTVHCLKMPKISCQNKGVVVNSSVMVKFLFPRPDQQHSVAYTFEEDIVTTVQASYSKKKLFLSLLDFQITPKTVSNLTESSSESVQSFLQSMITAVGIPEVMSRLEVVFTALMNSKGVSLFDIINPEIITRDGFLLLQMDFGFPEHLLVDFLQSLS
Assay type: biochemical
Procedure: CETP Scintillation Proximity Assay
Recombinant human CETP is partially purified from medium conditioned by CETP expressing CHO cells. In a 96 well homogeneous assay format CETP transfers ^3H-labelled cholesteryl esters from human HDL donor particles to biotin labelled LDL particles. Following over night incubation at room temperature the reaction is stopped by addition of streptavidin-coupled scintillation proximity assay (SPA) beads. These beads captured the biotinylated acceptor particles and the radioactivity is measured. The assay system is purchased and performed according to the manufacturer's recommendations (GE Healthcare).
Inhibitory activity of compounds is determined as percentage of positive control activity containing CETP together with donor and acceptor particles. Background activity is determined by adding buffer instead of CETP. Serial dilution of compound in buffer containing 10% DMSO is performed in order to determine the IC50 values.

Row | IC50 [µM] | Compound
1 | < 1 | CC1OC(c2ccc(C(F)(F)F)cc2)c2c1nc1c(c2C2CCCCC2)[C@@H](O)CC(C)(C)C1 (single isomer, unassigned) [Example 1 (7)]
2 | < 2 | CC1OC(c2ccc(C(F)(F)F)cc2)c2c1nc1c(c2C2CCCC2)[C@@H](O)CC(C)(C)C1 (single isomer, unassigned) [Example 1 (1)]
3 | < 2 | CC1OC(c2ccc(C(F)(F)F)cc2)c2c1nc1c(c2C2CCCC2)[C@@H](O)CC(C)(C)C1 (single isomer, unassigned) [Diastereomer 4 of Example 1 (2)]
4 | < 2 | CC1OC(c2ccc(C(F)(F)F)cc2)c2c1nc1c(c2C2CCCC2)[C@@H](O)CC(C)(C)C1 (single isomer, unassigned) [Example 1]
5 | < 1 | CC1OC(c2ccc(C(F)(F)F)cc2)c2c1nc1c(c2C2CCCC2)[C@@H](O)CC(C)(C)C1 (single isomer, unassigned) [Diastereomer 3 of Example 1 (2)]

More lines, now with the values behind:

Row | Compound | IC50 [µM]
6 | CC1(C)Cc2nc3c(c(C4CCCC4)c2[C@@H](O)C1)[C@H](c1ccc(C(F)(F)F)cc1)OC31CCCC1 (single isomer, unassigned) [1 (10), (1′S,8′S)-9′-Cyclopentyl-6′,6′-dimethyl-1′-(4-(trifluoromethyl)phenyl)-5′,6′,7′,8′-tetrahydro-1′H-spiro[cyclopentane-1,3′-furo[3,4-b]quinolin]-8′-ol] | < 1
7 | CC1(C)Cc2nc3c(c(C4CCCC4)c2[C@@H](O)C1)[C@H](c1ccc(C(F)(F)F)cc1)OC31CCCCC1 (single isomer, unassigned) [1 (8), (1′S,8′S)-9′-Cyclopentyl-6′,6′-dimethyl-1′-(4-(trifluoromethyl)phenyl)-5′,6′,7′,8′-tetrahydro-1′H-spiro[cyclohexane-1,3′-furo[3,4-b]quinolin]-8′-ol] | < 1
8 | CC1(C)Cc2nc3c(c(C4CCCC4)c2[C@@H](O)C1)[C@@H](c1ccc(C(F)(F)F)cc1)OC31CCCCC1 (single isomer, unassigned) [1 (9), (1′R,8′S)-9′-Cyclopentyl-6′,6′-dimethyl-1′-(4-(trifluoromethyl)phenyl)-5′,6′,7′,8′-tetrahydro-1′H-spiro[cyclohexane-1,3′-furo[3,4-b]quinolin]-8′-ol] | < 20
9 | CC1(C)Cc2nc3c(c(C4CCCC4)c2C(O)C1)C(c1ccc(C(F)(F)F)cc1)OC3(C)C (single isomer, unassigned) [Example 1 (4), 9-Cyclopentyl-3,3,6,6-tetramethyl-1-(4-trifluoromethyl-phenyl)-1,3,5,6,7,8-hexahydro-furo[3,4-b]quinolin-8-ol] | < 5
10 | CC1(C)Cc2nc3c(c(C4CCCC4)c2[C@@H](O)C1)C(c1ccc(C(F)(F)F)cc1)OC3(C)C (single isomer, unassigned) [Example 1 (5)] | < 1
11 | CC1OC(c2ccc(C(C)(C)C)cc2)c2c1nc1c(c2C2CCCCC2)[C@@H](O)CC(C)(C)C1 (stereo partly drawn) [Example 2, 8-(S)-1-(4-tert-Butyl-phenyl)-9-cyclohexyl-3,6,6-trimethyl-1,3,5,6,7,8-hexahydro-furo[3,4b]quinolin-8-ol] | < 5
12 | CC1(C)Cc2nc3c(c(C4CCCC4)c2[C@@H](O)C1)C(c1ccc(C(F)(F)F)cc1)OC3(C)C (single isomer, unassigned) [Example 1 (6)] | < 20
13 | CC1(C)Cc2nc3c(c(C4CCCC4)c2[C@@H](O)C1)C(c1ccc(C(F)(F)F)cc1)OC3 (single isomer, unassigned) [Diastereomer 1 of Example 1 (3)] | < 20

Same assay, conditions: comparison among diastereomers of the same structure

Row | Compound | CETP inhibitory potency compared to the other diastereomers
14 | CC1(C)Cc2nc3c(c(C4CCCC4)c2[C@@H](O)C1)C(c1ccc(C(F)(F)F)cc1)OC3(C)C (single isomer, unassigned) [Example 1 (5)] | higher CETP inhibitory potency as compared to the other diastereomer
15 | CC1OC(c2ccc(C(F)(F)F)cc2)c2c1nc1c(c2C2CCCC2)[C@@H](O)CC(C)(C)C1 (single isomer, unassigned) [Diastereomer 3 of Example 1 (2)] | higher CETP inhibitory potency as compared to the other diastereomers
